According to patent publication US12037415B2, “Peptide and pharmaceutical composition for treating an eye disease comprising the same as an active pharmaceutical ingredient” (YuYu Pharma, Inc., priority 2017, dated 2024):
Non-standard residues stand in square brackets, D forms with d. Residues, ends and D or L forms follow the SMILES beside them. No end group written: not given here. Hyp = O=C(O)[C@@H]1C[C@@H](O)CN1; Sar = CNCC(=O)O

What was measured:
[1] = system: rats with dry eye syndrome (extraorbital lacrimal gland excision, ELGE); assay: Amount of tear secretion (Schirmer test, cobalt chloride paper) in rats with ELGE-induced dry eye syndrome; type: in vivo, rat; conditions: for Amount of tear secretion as compared with the ELGE control group: 0.3% solution (DS 3%), administration for 14 days, study of YDE-001 to YDE-028
Excerpt: In order to evaluate the eye protection effect on dry eye syndrome by YDE-001 to YDE-028 prepared in Working Example 1, a total of 320 Sprague-Dawley-type male rats (OrientBio, Seungnam, Korea) were adapted for 7 days. Thereafter, dry eye syndrome was induced in 264 test rats through extraorbital lacrimal gland excision (hereinafter, ELGE). 8 test rats without the eye abnormality were subjected to a sham operation as a control group.
The rats were systemically anesthetized by inhaling a mixed gas of 2% to 3% of isoflurane (Hana Pharm. Co., Hwasung, Korea), 70% of N2O, and 28.6% of O2 using a rodent anesthesia machine (Surgivet, Waukesha, Wis., USA) and a ventilator (Model 687, Harvard Apparatus, Cambridge, UK). Thereafter, the extraorbital lacrimal gland located in the subdermal area above the masseter muscle and under the optic nerve was excised through a transverse incision in a size of 10 mm on the anterior part of the left ear tragus. The skin was sutured by a general method. […] After 6 days following the ELGE operation, confirmation was performed through the Schirmer test by measuring the amount of tear secretion whether dry eye syndrome had been induced. Meanwhile, each rat of the control group with the sham operation was checked for the presence and location of the extraorbital lacrimal gland through a skin incision, and the skin was then sutured without the excision thereof (FIG. 134).
In addition, in order to evaluate the eye protection effect on dry eye syndrome by YDE-029 to YDE-043 prepared in Working Example 1, a total of 200 Sprague-Dawley-type male rats (OrientBio, Seungnam, Korea) were adapted for 7 days. Dry eye syndrome was induced in 165 test rats through the ELGE. 8 test rats without the eye abnormality were subjected to the sham operation as a control group. The ELGE was carried out as described above.
(§1) For YDE-001 to YDE-028, YY-102 and the 28 YDE-series were each dissolved in physiological saline at a concentration of 3 mg/ml and administered at a dose of 5 μl/eye at 9:30 am and 3:30 pm daily for 14 days after 7 days from the ELGE operation for a total of 28 times. The DS solution was dissolved in physiological saline at a concentration of 30 mg/ml and administered at a dose of 5 μl/eye twice a day for 14 days after 7 days from the ELGE operation for a total of 28 times. For the sham control and the ELGE control groups, the same stimulation as the administration was applied. In order to prevent excessive eye dryness, the same volume of physiological saline was applied in the same manner in place of the test substances.
as §1, with “Further, For YDE-029” for “For YDE-001”, “Further, For YDE-029 to YDE-043,” for “For YDE-001 to YDE-028,”, “YDE-029 to YDE-043, YY-102 and” for “YDE-001 to YDE-028, YY-102 and”, “and the 15 YDE-series were” for “and the 28 YDE-series were”, “the test substances (FIG. 137).” for “the test substances.”
After 6 days from the ELGE surgery, the changes in the amount of tear secretion were measured at day 7 and day 14 after the administration of YDE-001 to YDE-043. The amount of tear secretion was measured by the […] travel distance of tears absorbed by cobalt chloride paper in a size of 1×15 mm (Toyo Roshi Kaisha, Japan).
The cobalt chloride paper was placed in the lateral canthus of a rat for 60 seconds to absorb tears (FIG. 139). The length of the area absorbed from the corner of the cobalt chloride paper was measured with an electronic digital caliper (Mytutoyo, Tokyo, Japan) (FIG. 138).

[2] = system: cornea of rats with dry eye syndrome (ELGE); assay: Corneal permeability of fluorescent dye (corneal damage) in rats with ELGE-induced dry eye syndrome; type: in vivo, rat; conditions: 0.3% solution, day 14 after the administration, study of YDE-001 to YDE-028 (Table 16)
Procedure, shortened: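 Dry eye induced in male Sprague-Dawley rats by extraorbital lacrimal gland excision, confirmed by Schirmer test. From day 7 post-surgery, compounds at 3 mg/ml in saline given topically 5 μl/eye twice daily. After 14 doses, 1% fluorescein applied for 1 h under anesthesia, with corneal permeability scored by slit-lamp 12–24 h later.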

[3] = Stability in aqueous solution, amount of related substances under long-term storage conditions; type: physicochemical; conditions: glass vial, 25° C., 75% RH
Procedure, shortened: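 Test substances dissolved in water at 1 mg/ml, sealed in glass vials and held at 25° C./75% RH. Related substances measured at 1, 2, 4, 8 and 12 weeks.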

Amount of related substances (%; after 12 weeks) [3] [%] | Molecule | Amount of tear secretion as compared with the ELGE control group [1] | Permeability of fluorescent dye (%) [2] [%] | Tear Volumes, Day 7 ([1]; ELGE rats, 0.3% solution, 5 μl/eye twice daily, day 7 of administration, study of YDE-001 to YDE-028 (Table 14)) [mm^3] | Tear Volumes, Day 14 ([1]; ELGE rats, 0.3% solution, 5 μl/eye twice daily, day 14 of administration, study of YDE-001 to YDE-028 (Table 14)) [mm^3]
21.33 | CC(C)C[C@H](NC(=O)[C@H](Cc1c[nH]c2ccccc12)NC(=O)[C@H](CC(=O)O)NC(=O)[C@H](CCC(N)=O)NC(=O)CNC(=O)[C@@H]1C[C@@H](O)CN1)C(=O)N[C@@H](C)C(=O)NCC(=O)N1CCC[C@H]1C(=O)N[C@@H](CCCCN)C(=O)O [YDE-021, HyP-Gly-Gln-Asp-Trp-Leu-Ala-Gly-Pro-Lys] (H-[Hyp]GQDWLAGPK-OH) | did not show any significant changes | 37.00 ± 10.49 | – | –
19.23 | CC(C)C[C@H](NC(=O)[C@H](Cc1c[nH]cn1)NC(=O)[C@H](CC(=O)O)NC(=O)[C@H](CCC(N)=O)NC(=O)CNC(=O)[C@@H]1C[C@@H](O)CN1)C(=O)N[C@@H](C)C(=O)NCC(=O)N1CCC[C@H]1C(=O)N[C@@H](CCCCN)C(=O)O [YDE-022, HyP-Gly-Gln-Asp-His-Leu-Ala-Gly-Pro-Lys] (H-[Hyp]GQDHLAGPK-OH) | did not show any significant changes | 47.82 ± 10.01 | – | –
12.74 | COC(=O)C[C@H](NC(=O)[C@H](CCC(N)=O)NC(=O)CNC(=O)[C@@H]1C[C@@H](O)CN1)C(=O)NCC(=O)N[C@@H](CC(C)C)C(=O)N[C@@H](C)C(=O)NCC(=O)N1CCC[C@H]1C(=O)N[C@@H](CCCCN)C(=O)O [YDE-027, HyP-Gly-Gln-Asp(Me)-Gly-Leu-Ala-Gly-Pro-Lys] (H-[Hyp]GQD(OMe)GLAGPK-OH) | did not show any significant changes | 50.24 ± 11.94 | – | –
1.15 | CNC(=O)C[C@H](NC(=O)[C@H](CCC(N)=O)NC(=O)CNC(=O)[C@@H]1C[C@@H](O)CN1)C(=O)NCC(=O)N[C@@H](CC(C)C)C(=O)N[C@@H](C)C(=O)NCC(=O)N1CCC[C@H]1C(=O)N[C@@H](CCCCN)C(=O)O [YDE-028, HyP-Gly-Gln-Asn(Me)-Gly-Leu-Ala-Gly-Pro-Lys] (H-[Hyp]GQD(NHMe)GLAGPK-OH) | did not show any significant changes | 41.17 ± 10.25 | – | –

Molecule | Amount of related substances (%; after 12 weeks) [3] [%] | Amount of tear secretion as compared with the ELGE control group [1] | Permeability of fluorescent dye (%) [2] [%] | Tear Volumes, Day 7 ([1]; ELGE rats, 0.3% solution, 5 μl/eye twice daily, day 7 of administration, study of YDE-001 to YDE-028 (Table 14)) [mm^3] | Tear Volumes, Day 14 ([1]; ELGE rats, 0.3% solution, 5 μl/eye twice daily, day 14 of administration, study of YDE-001 to YDE-028 (Table 14)) [mm^3]
YDE-025: peptide of SEQ ID NO: 31, the compound represented by Formula 10 ([Hyp]GQD[Sar]LAGPK; ends and bridges not checked) | 5.17 | did not show any significant changes | 47.10 ± 11.45 | 3.21 ± 0.72 | 4.72 ± 2.19
